Our source for the GI50 and TGI values is PubChem BioAssay (NCI).

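Five concentrations, 48 hours, 96-well plates. GI50 marks 50% less growth. TGI: total growth inhibition.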

Among the test systems are MDA-MB-435; SW-620 colon; UO-31 renal; HT29 colon; HCT-116 colon; A549 NSCLC; RXF 393 renal; SK-MEL-28 melanoma; LOX IMVI melanoma; NCI-H23 lung.
Experiment in all cases: growth of human tumour cells (NCI), 48 h

Consider `CN(Cc1cnc(N)nc1N)c1ccc(C(=O)O)cc1`, for which the GI50 in the assay on MDA-MB-435 is more than 100 µM; in the assay with SW-620 colon it was more than 100000 nM; in the assay with UO-31 renal it was more than 100 µM; in the assay with HT29 colon, more than 100000 nM; with HCT-116 colon it was more than 100000 nM; with A549 NSCLC, more than 100000 nM. The GI50 in the assay on RXF 393 renal was more than 100000 nM; in the assay on SK-MEL-28 melanoma, more than 100 µM; in the assay on LOX IMVI melanoma, more than 100000 nM; in the assay with NCI-H23 lung, more than 100 µM. Besides, the TGI in the assay with MDA-MB-435, in the assay on SW-620 colon, with UO-31 renal, in the assay with HT29 colon, in the assay with HCT-116 colon and in the assay with A549 NSCLC was more than 100 µM in each case. Besides, the TGI in the assay with RXF 393 renal, with SK-MEL-28 melanoma, in the assay with LOX IMVI melanoma and in the assay on NCI-H23 lung was more than 100 µM throughout.
Consider `NC1=NC(c2ccc(Cl)cc2)N(c2ccc(S(=O)(=O)Nc3ncccn3)cc2)C(N)=N1` (stereo not given), for which the TGI in the assay with MDA-MB-435, in the assay on SW-620 colon, with UO-31 renal, in the assay with HT29 colon, in the assay with HCT-116 colon and in the assay on A549 NSCLC was more than 100 µM in each case. The TGI with RXF 393 renal, with SK-MEL-28 melanoma, in the assay with LOX IMVI melanoma and with NCI-H23 lung was more than 100 µM in each case.
Turning to `Cc1cc2cccnc2c2ncccc12`, the GI50 with MDA-MB-435 was 2.15 µM; with SW-620 colon, 2340 nM; in the assay on UO-31 renal it was 0.411 µM; in the assay with HT29 colon it was 1690 nM; in the assay on HCT-116 colon, 1140 nM; with A549 NSCLC, 949 nM. Besides, the GI50 in the assay on RXF 393 renal is 1890 nM; in the assay with SK-MEL-28 melanoma it was 2.56 µM; with LOX IMVI melanoma it was 674 nM; with NCI-H23 lung, 3.11 µM. For the same compound, the TGI in the assay on MDA-MB-435 was 21.9 µM; in the assay on SW-620 colon it was 27.9 µM; with UO-31 renal, 4.15 µM; in the assay on HT29 colon it was 16 µM; with HCT-116 colon, 7.06 µM; in the assay on A549 NSCLC it was 10.6 µM. The TGI with RXF 393 renal was 6.77 µM; in the assay on SK-MEL-28 melanoma, more than 100 µM; in the assay with LOX IMVI melanoma, 8.6 µM; in the assay with NCI-H23 lung, 87.6 µM.
Take `N#CC(C#N)=Cc1c(-c2ccccc2)[nH]c2ccccc12`: the GI50 in the assay with MDA-MB-435 was 0.248 µM; with SW-620 colon, 523 nM; with UO-31 renal, 11 µM; with HT29 colon it was 526 nM; with HCT-116 colon, 2210 nM; with A549 NSCLC it was 4620 nM. Moreover, the GI50 is 3330 nM in the assay on RXF 393 renal, 3.57 µM with SK-MEL-28 melanoma, 3270 nM with LOX IMVI melanoma and 4.65 µM with NCI-H23 lung. Besides, the TGI is 0.736 µM with MDA-MB-435; more than 35.1 µM in the assay on SW-620 colon; more than 75.6 µM in the assay on UO-31 renal; more than 53.9 µM in the assay on HT29 colon; more than 100 µM in the assay on HCT-116 colon; more than 100 µM with A549 NSCLC. Further, the TGI with RXF 393 renal is more than 33.3 µM; in the assay on SK-MEL-28 melanoma, more than 45.8 µM; with LOX IMVI melanoma, more than 47.3 µM; in the assay on NCI-H23 lung, more than 66.3 µM.
For the compound `CC(=O)Nc1ccc(-c2c3nc(c(-c4cc5ccccc5[n+](C)c4)c4ccc([nH]4)c(-c4ccc(NC(C)=O)cc4)c4nc(c(-c5cc6ccccc6[n+](C)c5)c5ccc2[nH]5)C=C4)C=C3)cc1`, the GI50 with MDA-MB-435 is 7.19 µM; in the assay on SW-620 colon it was 23600 nM; in the assay on UO-31 renal it was 10.6 µM; in the assay with HT29 colon it was 40300 nM; in the assay with HCT-116 colon, 22000 nM; with A549 NSCLC it was 8600 nM. The GI50 with RXF 393 renal was 2050 nM; in the assay with SK-MEL-28 melanoma, 10.5 µM; in the assay on LOX IMVI melanoma it was 12500 nM; with NCI-H23 lung, 17.3 µM. The TGI with MDA-MB-435 is 30.6 µM; with SW-620 colon, more than 50 µM; in the assay on UO-31 renal, 33.6 µM; in the assay with HT29 colon, more than 50 µM; in the assay with HCT-116 colon, more than 50 µM; in the assay with A549 NSCLC, 35.4 µM. The TGI with RXF 393 renal was 14.5 µM; with SK-MEL-28 melanoma, 29.2 µM; in the assay on LOX IMVI melanoma it was more than 50 µM; in the assay with NCI-H23 lung, more than 50 µM.
For `O=C(/C=C/c1ccccc1)c1c[nH]c2ccccc2c1=O`, the GI50 in the assay on MDA-MB-435 is 3.17 µM; in the assay with SW-620 colon it was 2760 nM; in the assay with UO-31 renal, 3.26 µM; in the assay on HT29 colon it was 3150 nM; with HCT-116 colon it was 3110 nM; with A549 NSCLC it was 2350 nM. The GI50 in the assay with RXF 393 renal is 3050 nM; in the assay on SK-MEL-28 melanoma it was 6.53 µM; in the assay with LOX IMVI melanoma it was 2880 nM; in the assay with NCI-H23 lung, 3.17 µM. In addition, the TGI with MDA-MB-435 came to 13.8 µM; in the assay on SW-620 colon, 10 µM; with UO-31 renal it was 14.7 µM; in the assay with HT29 colon, 10.6 µM; with HCT-116 colon it was 12.1 µM; with A549 NSCLC it was 10.3 µM. Moreover, the TGI in the assay with RXF 393 renal was 11.5 µM; in the assay with SK-MEL-28 melanoma it was 19.4 µM; with LOX IMVI melanoma, 12 µM; in the assay on NCI-H23 lung, 15.2 µM.
As to `COc1ccc2c(c1)[C@]1(C[C@H]1c1ccc3c(/C=C/c4ccc(CN5C[C@@H](C)O[C@@H](C)C5)cc4)n[nH]c3c1)C(=O)N2`, the GI50 is 3.75 µM with MDA-MB-435; 2460 nM in the assay with SW-620 colon; 2.84 µM in the assay with UO-31 renal; 2830 nM in the assay on HT29 colon; 1770 nM in the assay with HCT-116 colon; 2720 nM in the assay on A549 NSCLC. Besides, the GI50 in the assay with RXF 393 renal is 1850 nM; in the assay on SK-MEL-28 melanoma it was 6.2 µM; in the assay with LOX IMVI melanoma, 1960 nM; in the assay on NCI-H23 lung, 2.87 µM. Moreover, the TGI in the assay with MDA-MB-435 was 21.8 µM; in the assay on SW-620 colon, more than 61 µM; in the assay with UO-31 renal it was more than 100 µM; in the assay on HT29 colon it was 11.6 µM; in the assay with HCT-116 colon it was 12.1 µM; with A549 NSCLC it was more than 55.4 µM. In addition, the TGI in the assay on RXF 393 renal was found to be 4.4 µM; in the assay with SK-MEL-28 melanoma, 38.1 µM; with LOX IMVI melanoma it was 10.4 µM; in the assay with NCI-H23 lung, 31.8 µM.
Turning to `CN1CCN(CCCOc2cccc3nc(Nc4ccc(Cl)c(F)c4)ccc23)CC1`, the GI50 is 1.61 µM in the assay with MDA-MB-435; 1970 nM with SW-620 colon; 1.57 µM in the assay with UO-31 renal; 1410 nM in the assay with HT29 colon; 1560 nM in the assay with HCT-116 colon; 1960 nM in the assay on A549 NSCLC. The GI50 was 1960 nM in the assay with RXF 393 renal, 1.72 µM in the assay with SK-MEL-28 melanoma, 1640 nM in the assay with LOX IMVI melanoma and 1.75 µM in the assay on NCI-H23 lung. Also, the TGI in the assay with MDA-MB-435 came to 3.14 µM; with SW-620 colon it was 3.71 µM; in the assay with UO-31 renal, 3.32 µM; in the assay with HT29 colon, 2.8 µM; in the assay on HCT-116 colon, 3.03 µM; with A549 NSCLC it was 3.65 µM. In addition, the TGI stood at 4.04 µM in the assay on RXF 393 renal, 3.21 µM in the assay on SK-MEL-28 melanoma, 3.17 µM in the assay with LOX IMVI melanoma and 3.43 µM in the assay with NCI-H23 lung.
